For test [1], the target named is T1, NEP (membranes from rat kidney cortex) (Rattus norvegicus, UniProt P07861).
T1 construct: from tissue; host or cells: kidney cortex membranes of male Sprague-Dawley rats
T1 sequence (P07861 1-750): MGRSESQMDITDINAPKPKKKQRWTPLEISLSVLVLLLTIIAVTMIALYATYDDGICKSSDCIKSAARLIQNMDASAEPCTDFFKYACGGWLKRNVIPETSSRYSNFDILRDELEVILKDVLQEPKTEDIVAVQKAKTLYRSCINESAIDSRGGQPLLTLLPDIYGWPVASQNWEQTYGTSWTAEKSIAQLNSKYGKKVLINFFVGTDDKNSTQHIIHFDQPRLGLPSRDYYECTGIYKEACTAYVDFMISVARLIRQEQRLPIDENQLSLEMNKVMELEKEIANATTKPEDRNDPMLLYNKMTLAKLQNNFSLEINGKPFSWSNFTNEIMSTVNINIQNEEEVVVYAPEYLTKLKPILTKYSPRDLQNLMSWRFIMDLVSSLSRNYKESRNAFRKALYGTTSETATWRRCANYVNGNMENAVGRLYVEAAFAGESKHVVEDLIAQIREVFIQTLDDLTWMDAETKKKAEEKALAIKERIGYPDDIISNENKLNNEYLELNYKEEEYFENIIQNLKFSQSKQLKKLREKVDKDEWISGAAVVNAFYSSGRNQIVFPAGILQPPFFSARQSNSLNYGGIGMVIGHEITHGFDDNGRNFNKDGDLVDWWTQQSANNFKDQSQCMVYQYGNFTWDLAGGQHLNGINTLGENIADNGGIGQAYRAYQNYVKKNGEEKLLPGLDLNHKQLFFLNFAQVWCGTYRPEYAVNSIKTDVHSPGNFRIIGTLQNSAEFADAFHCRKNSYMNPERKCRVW
As to the kind of experiment: In vitro NEP-inhibitory activity in rat kidney cortex membranes ([3H][Leu5]-enkephaline substrate). The settings on record: 20 minutes at 30° C.; [3H][Leu5]-enkephaline 15 nM. It counts as biochemical, male Sprague-Dawley rats. The protocol: (§1) a) NEP-inhibitory activity
The NEP-inhibitory activity was evaluated in membranes from rat kidney cortex prepared according to the procedure described by T. Maeda et al. in Biochim. Biophys. Acta 1983, 731(1), 115-120.
By working at 0°-4° C., kidneys were removed from male Sprague-Dawley rats weighing approximately 300 g.
Cortex was carefully dissected, finely minced and suspended in a homogenization buffer (10 mM sodium phosphate pH 7.4 containing 1 mM MgCl2, 30 mM NaCl, 0.02% NaN3) 1:15 weight/volume.
The tissue was then homogenized for 30 seconds using an Ultra-Turrax homogenizer.
Approximately 10 ml of homogenate were layered over 10 ml of sucrose (41% weight/volume) and centrifuged at 31200 rpm for 30 minutes at 4° C. in a fixed angle rotor. The membranes were collected from the buffer/sucrose interface, washed twice with 50 mM TRIS/HCl buffer (pH 7.4) and resuspended into the same buffer for storage.
The membranes were stored in small aliquots at -80° C. until use.
The NEP-inhibitory activity was evaluated according to the method described by C. Llorens et al., in Eur. J. Pharmacol., 69, (1981), 113-116, as reported hereinafter.
Aliquots of the membrane suspension prepared as above described (concentration 5 μg/ml of proteins) were preincubated in the presence of an aminopeptidase inhibitory (Bestatin--1 mM) for 10 minutes at 30° C.
[^3 H][Leu^5 ]-enkephaline (15 nM) and buffer TRIS/HCl pH 7.4 (50 mM) were added in order to obtain a final volume of 100 μl.
Incubation (20 minutes at 30° C.) was stopped by adding HCl 0.1M (100 μl).
The formation of the metabolite [^3 H]Tyr-Gly-Gly was quantified by chromatography on polystyrene columns (Porapak Q).

The target in test [2] is T2, ACE (purified by lung rabbit, EC 3.4.15.1) (Oryctolagus cuniculus, UniProt P12822).
T2 construct: purchased SIGMA; host or cells: rabbit lung
T2 sequence (P12822 34-1310): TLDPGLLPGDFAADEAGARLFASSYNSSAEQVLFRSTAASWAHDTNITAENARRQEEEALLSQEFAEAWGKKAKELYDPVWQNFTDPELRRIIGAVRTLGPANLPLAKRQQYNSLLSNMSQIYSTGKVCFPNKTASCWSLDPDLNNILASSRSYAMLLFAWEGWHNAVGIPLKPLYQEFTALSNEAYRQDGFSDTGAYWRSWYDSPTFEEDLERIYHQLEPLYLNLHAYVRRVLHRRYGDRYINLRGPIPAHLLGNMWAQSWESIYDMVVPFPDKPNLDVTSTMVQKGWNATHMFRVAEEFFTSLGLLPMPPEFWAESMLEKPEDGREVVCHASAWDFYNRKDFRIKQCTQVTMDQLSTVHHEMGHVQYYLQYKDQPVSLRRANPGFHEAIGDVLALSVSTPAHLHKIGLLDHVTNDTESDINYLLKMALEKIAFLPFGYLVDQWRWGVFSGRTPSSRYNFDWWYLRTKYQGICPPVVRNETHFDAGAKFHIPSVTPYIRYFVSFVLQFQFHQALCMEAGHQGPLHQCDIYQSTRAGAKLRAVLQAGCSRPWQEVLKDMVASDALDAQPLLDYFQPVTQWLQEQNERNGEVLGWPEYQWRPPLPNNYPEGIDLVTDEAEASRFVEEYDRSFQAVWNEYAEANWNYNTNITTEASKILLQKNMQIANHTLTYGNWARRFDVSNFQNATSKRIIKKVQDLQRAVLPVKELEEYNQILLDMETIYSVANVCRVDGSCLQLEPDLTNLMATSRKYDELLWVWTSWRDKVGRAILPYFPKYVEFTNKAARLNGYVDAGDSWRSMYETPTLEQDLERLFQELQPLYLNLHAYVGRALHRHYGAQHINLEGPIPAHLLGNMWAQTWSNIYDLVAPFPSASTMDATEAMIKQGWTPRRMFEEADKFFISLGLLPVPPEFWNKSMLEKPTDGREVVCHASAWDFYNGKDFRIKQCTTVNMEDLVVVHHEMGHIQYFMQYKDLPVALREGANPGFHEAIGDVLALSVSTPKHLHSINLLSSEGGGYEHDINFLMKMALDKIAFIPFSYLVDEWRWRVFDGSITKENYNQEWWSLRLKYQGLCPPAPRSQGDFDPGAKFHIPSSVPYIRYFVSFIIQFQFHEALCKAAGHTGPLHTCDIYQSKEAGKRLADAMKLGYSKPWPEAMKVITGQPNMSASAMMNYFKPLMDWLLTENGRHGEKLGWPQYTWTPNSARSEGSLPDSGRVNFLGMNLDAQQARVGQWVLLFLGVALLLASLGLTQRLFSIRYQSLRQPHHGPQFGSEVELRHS
As to the kind of experiment: In vitro ACE-inhibitory activity (FAPGG substrate, spectrophotometric). The format is biochemical. Conditions: 37° C.; FAPGG 0.8 mM. The protocol: (§2) b) ACE-inhibitory activity
The ACE-inhibitory activity was evaluated according to the method reported in the literature by B. Holmquist et al., in Analytical Biochemistry 95, 540-548 (1979).
[…] of ACE (250 mU/ml purified by lung rabbit, EC 3.4.15.1 SIGMA) were preincubated with 50 μl of the compound of formula I or of the comparison compound in thermostated cuvettes at 37° C.
The reaction was started by adding furylacryloylphenylalanylglycylglycine 0.8 mM (FAPGG-SIGMA).
Contemporaneously, by using a Beckman DU-50 spectrophotometer provided with a program for calculating delta A/minutes and regression coefficients of the enzyme kinetics curves, the absorbance at 340 nm was recorded in continuo for 5 minutes.
The percentage of the enzyme inhibition in the preparations treated with the compounds of formula I or with the comparative compounds with respect to the untreated preparations was expressed as IC50 (nM) value.

In another test the test system is NEP (SHR kidneys). As to the kind of experiment: Ex vivo NEP-inhibitory activity in kidneys of treated SHR. On the set-up: species or system spontaneously hypertensive rats (SHR). The protocol: (§3) The ex vivo ACE/NEP-inhibitory activity of the compounds of formula I, in particular, was evaluated by considering the enzymatic activity in tissue homogenates (lung and kidney for the ACE- and NEP-inhibitory activity, respectively) from spontaneously hypertensive rats (SHR), treated with the tested compounds by intravenous or oral route.
as §1
The ex vivo NEP-inhibitory activity was evaluated according to the procedure reported in the literature by M. Orlowsky et al., in Biochemistry 1981, 20, 4942-4950.
The inhibitory activity of the compounds of formula I was evaluated in kidneys of spontaneously hypertensive rats (SHR), 5 minutes after i.v. injection (0.6, 0.64 and 21 μmoles/kg) and 30 minutes, 60 minutes and 4 hours after oral administration (30 μmoles/kg) of the tested compounds.
After the removal of the kidneys from SHR, the renal tissue was homogenized and incubated for 15 minutes at 37° C. in the presence of Glutaryl-Ala-Ala-Phe-2-naphthylamide (GAAP), as a substrate, and aminopeptidase M at pH 7.6.
The reaction was stopped by adding an aqueous solution at 10% of trichloroacetic acid.
The released 2-naphthylamine was determined by adding fast garnet dye (2 ml).
Enzyme reaction rates were determined by measuring the increase in the optical density at 524 nm (OD524) with respect to a standard obtained with 2-naphthylamine complexed with fast garnet.
The NEP-inhibitory activity of the tested compounds was expressed as percentage of NEP-inhibition in SHR kidneys.
(§4) As an example, the percentages of basal enzymatic activity obtained in the ex vivo tests after the administration of compounds 29 and 41, as representative compounds of formula I, and of the comparison compounds R-1, R-2, R-3 and R-4 are reported in the following table 2.

A further test deals with ACE (SHR lungs). Put plainly: Ex vivo ACE-inhibitory activity in lungs of treated SHR. On the set-up: species or system spontaneously hypertensive rats (SHR). As to the method: as §3, §2
The ex vivo ACE-inhibitory activity was evaluated by using a radiometric assay method, as reported in the literature by J. W. Ryan et al. in Biochem. J. (1977), 167, 501-504.
The inhibitory activity of the compounds of formula I was evaluated in lungs of spontaneously hypertensive rats (SHR), 5 minutes after i.v. injection (0.6, 0.64 and 21 μmoles/kg) and 30 minutes, 60 minutes and 4 hours after oral administration (30 μmoles/kg) of the tested compounds.
After the removal of the lungs from SHR, the lung tissue was homogenized and incubated for 2 hours at 37° C. in the presence of [^3 H]Hyp-Gly-Gly, as a substrate.
The reaction was stopped by adding hydrochloric acid.
The released radiolabelled hyppuric acid was extracted with ethyl acetate and counted by liquid scintillation spectrometry, according to conventional methods.
The ACE-inhibitory activity of the tested compounds was expressed as percentage of ACE-inhibition in SHR lungs.
as §4

The values that follow come from patent US5760241A, “Thiol derivatives with metallopeptidase inhibitory activity” (priority 1996, dated 1998).

Where a name gives a salt, the structure may show the parent alone.

As to `COc1cccc(CC(CS)C(=O)N[C@@H](Cc2ccc(-c3ccccc3)cc2)C(=O)O)c1` (single isomer, unassigned) [compound 42, N-[2-mercaptomethyl-3-(3-methoxyphenyl)propionyl]-(1,1'-biphenyl-4-yl)-L-alanine], the IC50 in test [1] is 16 nM; in test [2] it was 7.5 nM.
The corresponding values for `O=C(N[C@@H](Cc1ccc(-c2ccccc2)cc1)C(=O)O)C(CS)Cc1cccnc1` (single isomer, unassigned) [compound 50, N-[2-mercaptomethyl-3-(3-pyridyl)propionyl]-(1,1'-biphenyl-4-yl)-L-alanine hydrochloride] are 2.9 nM and 13 nM.
Turning to `O=C(N[C@@H](Cc1ccccc1)C(=O)O)C(CS)Cc1ccc2c(c1)OCO2` (stereo partly drawn) [R-1, N-[3-mercapto-2-(3,4-methylenedioxyphenyl)methyl-propionyl]-(S)-phenylalanine], in the test with NEP (SHR kidneys) (oral 30 μmoles/kg), the “NEP-inhibition (kidneys), 30 minutes” value was 5% and the “NEP-inhibition (kidneys), 4 hours” value is on record as “not active”. Moreover, in the test with ACE (SHR lungs) (oral 30 μmoles/kg), the “ACE-inhibition (lungs), 30 minutes” value was 25% and the “ACE-inhibition (lungs), 4 hours” value is 20%.
The corresponding values for `O=C(N[C@@H](Cc1ccc(O)cc1)C(=O)O)C(CS)Cc1ccc2c(c1)OCO2` (stereo partly drawn) [R-2, N-[3-mercapto-2-(3,4-methylenedioxyphenyl)methyl-propionyl]-(S)-tyrosine] are 30%, “not active”, 30% and 25%.
Taken in the same sequence, the figures for `CC(CS)C(=O)N[C@@H](Cc1ccc(O)cc1)C(=O)O` (stereo partly drawn) [R-3, N-(3-mercapto-2-methylpropanoyl)-L-tyrosine] were 10%, 5%, 25% and 20%.
Taken in the same sequence, the figures for `CC(CS)C(=O)N[C@@H](Cc1c[nH]c2ccccc12)C(=O)O` (stereo partly drawn) [R-4, N-(3-mercapto-2-methylpropanoyl)-L-triptophan] were “not active”, “not active”, 25% and 10%.
Take `O=C(N[C@@H](Cc1ccc(-c2nccs2)cc1)C(=O)O)[C@@H](CS)Cc1ccccc1` [compound 29, N-[(2S)-3-mercapto-2-phenylmethylpropionyl]-4-(2-thiazolyl)-L-phenylalanine]: the “NEP-inhibition (kidneys), 5 minutes” value with NEP (SHR kidneys) (i.v. 0.6 μmoles/kg) was 34%. For the same compound, the “NEP-inhibition (kidneys), 5 minutes” value with NEP (SHR kidneys) (i.v. 21 μmoles/kg) came out at 49%. In the test on NEP (SHR kidneys) (oral 30 μmoles/kg), the “NEP-inhibition (kidneys), 30 minutes” value was found to be 55% and the “NEP-inhibition (kidneys), 4 hours” value amounted to 40%. In the test with NEP (SHR kidneys) (oral 30 μmoles/kg, 60 minutes), the “NEP-inhibition (kidneys), 60 minutes” value turned out to be 39%. Besides, in the test with ACE (SHR lungs) (i.v. 0.6 μmoles/kg), the “ACE-inhibition (lungs), 5 minutes” value is recorded as 15%. Besides, in the test with ACE (SHR lungs) (i.v. 21 μmoles/kg), the “ACE-inhibition (lungs), 5 minutes” value turned out to be 72%. In the test on ACE (SHR lungs) (oral 30 μmoles/kg), the “ACE-inhibition (lungs), 30 minutes” value is on record as 60% and the “ACE-inhibition (lungs), 4 hours” value came to 45%. Besides, in the test on ACE (SHR lungs) (oral 30 μmoles/kg, 60 minutes), the “ACE-inhibition (lungs), 60 minutes” value is reported as 36%.
